Several values for one entry are separate records, joined by “and”; a condition that tells them apart may be missing. Equal entries are not always repeated. Inconclusive results and toxic doses are left out. How the source made its calls: active means survival T/C of 150% or more; inactive means T/C below 125% in these data. Numbered stars: 1 amine (or outer) side, 2 acyl side, 3 side chain; on linkers, the order of the positions; unused ones are H or OH. Bridge positions count the residues as written; N and C are the ends. Square brackets hold non-standard residues; d marks the D form. Peptide text beside a SMILES is read from it. I, II: the chains in the order shown. ξ: configuration not given here. Actinocin(9to1) = Cc1c2oc3c(C)ccc(C(=O)[*:1])c3nc-2c(C(=O)[*:2])c(N)c1=O; ξLac(3-iPr) = CC(C)CC(O)C(=O)O; NMeV = CN[CH](C(=O)O)C(C)C; Pip = O=C(O)[CH]1CCCCN1; NMeA = CN[CH](C)C(=O)O; βAla = NCCC(=O)O; Sar = CNCC(=O)O
Tested on: P388 leukemia ip, CD2F1 mice, survival T/C
Assay: NCI In Vivo Anticancer Drug Screen. Data for tumor model P388 Leukemia (intraperitoneal) in CD2F1 (CDF1) mice
Conditions: endpoint: median survival time, higher = longer survival
Outline: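 Mice carrying the transplanted tumor received test compound or vehicle. Survival was recorded in each group, and the value is the treated-group measurement divided by that of the vehicle-treated control group.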

[1] = dose: 120.0 mg/kg/injection, schedule: Q01DX005 (ip), vehicle: Klucel (hydroxypropylcellulose) (HPC)
[2] = dose: 50.0 mg/kg/injection, schedule: Q01DX005 (ip), vehicle: saline with Tween-80
[3] = dose: 100.0 mg/kg/injection, schedule: Q01DX005 (ip), vehicle: saline with Tween-80
[4] = dose: 200.0 mg/kg/injection, schedule: Q01DX005 (ip), vehicle: saline with Tween-80
[5] = dose: 50.0 mg/kg/injection, schedule: Q01DX009 (ip), vehicle: Klucel (hydroxypropylcellulose) (HPC)
[6] = dose: 100.0 mg/kg/injection, schedule: Q01DX009 (ip), vehicle: Klucel (hydroxypropylcellulose) (HPC)
[7] = dose: 200.0 mg/kg/injection, schedule: Q01DX009 (ip), vehicle: Klucel (hydroxypropylcellulose) (HPC)
[8] = dose: 50.0 mg/kg/injection, schedule: Q01DX005 (ip), vehicle: Klucel (hydroxypropylcellulose) (HPC)
[9] = dose: 100.0 mg/kg/injection, schedule: Q01DX005 (ip), vehicle: Klucel (hydroxypropylcellulose) (HPC)
[10] = dose: 12.5 mg/kg/injection, schedule: Q01DX009 (ip), vehicle: saline with Tween-80
[11] = dose: 25.0 mg/kg/injection, schedule: Q01DX009 (ip), vehicle: saline with Tween-80
[12] = dose: 50.0 mg/kg/injection, schedule: Q01DX009 (ip), vehicle: saline with Tween-80
[13] = dose: 100.0 mg/kg/injection, schedule: Q01DX009 (ip), vehicle: saline with Tween-80
[14] = dose: 200.0 mg/kg/injection, schedule: Q01DX009 (ip), vehicle: saline with Tween-80
[15] = dose: 200.0 mg/kg/injection, schedule: Q01DX005 (ip), vehicle: Klucel (hydroxypropylcellulose) (HPC)
[16] = dose: 6.25 mg/kg/injection, schedule: Q01DX009 (ip), vehicle: saline with Tween-80

Measured: T/C

CCC(C)/C(=C\C#N)NCCCN/C(=C/C#N)C(C)CC (stereo not drawn)
inactive: dose: 3.75 mg/kg/injection, schedule: Q01DX005 (ip), vehicle: Klucel + Tween-80 100 % of control | dose: 7.5 mg/kg/injection, schedule: Q01DX005 (ip), vehicle: Klucel + Tween-80 109 % of control | dose: 15.0 mg/kg/injection, schedule: Q01DX005 (ip), vehicle: Klucel + Tween-80 92 % of control and 98 % of control | dose: 60.0 mg/kg/injection, schedule: Q01DX005 (ip), vehicle: Klucel + Tween-80 86 % of control | [1] 88 % of control

CN(C)CCN1C(=O)C2(C)C3CCC(O3)C2(C)C1=O (stereo not drawn)
inactive: [2] 103 % of control | [3] 100 % of control | [4] 100 % of control

O=CNc1nc[nH]c1-c1noc(=O)[nH]1
inactive: dose: 25.0 mg/kg/injection, schedule: Q04DX002 (ip), vehicle: saline 104 % of control | dose: 50.0 mg/kg/injection, schedule: Q04DX002 (ip), vehicle: saline 104 % of control | dose: 100.0 mg/kg/injection, schedule: Q04DX002 (ip), vehicle: saline 104 % of control and 110 % of control

CSc1ncnc2c1ncn2C1OC(CO)C(O)OC1O (stereo not drawn)
inactive: dose: 16.5 mg/kg/injection, schedule: Q01DX009 (ip), vehicle: saline with Tween-80 122 % of control | dose: 50.0 mg/kg/injection, schedule: Q04DX003 (ip), vehicle: saline with Tween-80 109 % of control | dose: 66.0 mg/kg/injection, schedule: Q04DX003 (ip), vehicle: saline with Tween-80 112 % of control | dose: 100.0 mg/kg/injection, schedule: Q04DX003 (ip), vehicle: saline with Tween-80 108 % of control

CCCCCCCCCCCC(=O)Nc1ncc([N+](=O)[O-])s1
inactive: [5] 101 % of control | [6] 102 % of control | [7] 106 % of control

CC(C)(C)SCC(NC(=O)OCC1c2ccccc2-c2ccccc21)C(=O)O (stereo not drawn)
inactive: [8] 100 % of control | [9] 100 % of control

c1ccc2c(c1)[nH]c1c2nc2sccn21
inactive: dose: 60.0 mg/kg/injection, schedule: Q01DX005 (ip), vehicle: Klucel (hydroxypropylcellulose) (HPC) 115 % of control | [1] 115 % of control | dose: 240.0 mg/kg/injection, schedule: Q01DX005 (ip), vehicle: Klucel (hydroxypropylcellulose) (HPC) 116 % of control

COC(=O)c1cc2cccn2cn1
inactive: [10] 115 % of control | [11] 115 % of control | [12] 104 % of control | [13] 91 % of control | [14] 100 % of control

NNS(=O)(=O)CCC(N)C(=O)O (stereo not drawn)
inactive: dose: 12.5 mg/kg/injection, schedule: Q01DX009 (ip), vehicle: water 100 % of control | dose: 25.0 mg/kg/injection, schedule: Q01DX009 (ip), vehicle: water 107 % of control | dose: 50.0 mg/kg/injection, schedule: Q01DX009 (ip), vehicle: water 107 % of control | dose: 100.0 mg/kg/injection, schedule: Q01DX009 (ip), vehicle: water 98 % of control

COC1N(Cc2ccccc2)C=C2C(=O)NC(=O)C3NC(c4ccccc4)C1(C)C23C (stereo not drawn)
inactive: [8] 90 % of control | [9] 91 % of control | [15] 88 % of control and 92 % of control

CN(C)/C=C1\CCCCC1=C(C#N)C#N
inactive: dose: 100.0 mg/kg/injection, schedule: Q04DX003 (ip), vehicle: saline 100 % of control | dose: 200.0 mg/kg/injection, schedule: Q04DX003 (ip), vehicle: saline 93 % of control | dose: 400.0 mg/kg/injection, schedule: Q04DX003 (ip), vehicle: saline 95 % of control

CCOC(=O)/C(C#N)=C/c1ccc(-c2cc(C(F)(F)F)cc(C(F)(F)F)c2)o1
inactive: [2] 92 % of control | [3] 90 % of control | [4] 88 % of control

CN(C)C1CC(C)(O)Cc2cc3c(c(O)c21)C(=O)c1c(O)cc2c(c1C3=O)OC1OC2(C)C(O)C(N(C)C)C1O (stereo not drawn)
active: dose: 50.0 mg/kg/injection, schedule: Q01DX009 (ip), vehicle: other 153 % of control
inactive: dose: 3.12 mg/kg/injection, schedule: Q01DX009 (ip), vehicle: other 103 % of control | dose: 6.25 mg/kg/injection, schedule: Q01DX009 (ip), vehicle: other 120 % of control

CN(C)CCC(=O)C(=Cc1c(Cl)cccc1Cl)C(=O)CCN(C)C
inactive: dose: 7.5 mg/kg/injection, schedule: Q01DX005 (ip), vehicle: saline 119 % of control and 120 % of control | dose: 15.0 mg/kg/injection, schedule: Q01DX005 (ip), vehicle: saline 120 % of control and 123 % of control

COc1cc([C@H]2c3c(cc(OC)c(OC)c3OC)CC3COC(=O)[C@@H]32)cc2c1OCO2 (stereo partly drawn)
inactive: dose: 60.0 mg/kg/injection, schedule: Q01DX005 (ip), vehicle: saline with Tween-80 98 % of control | dose: 120.0 mg/kg/injection, schedule: Q01DX005 (ip), vehicle: saline with Tween-80 92 % of control | dose: 240.0 mg/kg/injection, schedule: Q01DX005 (ip), vehicle: saline with Tween-80 90 % of control

CCCCCCCCCCSCC(N)CO (stereo not drawn)
inactive: [16] 93 % of control | [10] 100 % of control | [11] 100 % of control

CC(N)C(=O)NC(C)C(=O)NC(C)C(=O)O (stereo not drawn)
inactive: [8] 104 % of control | [9] 106 % of control | [15] 101 % of control

Fc1ccc(N=Cc2cccs2)cc1
inactive: [5] 110 % of control | [6] 107 % of control | [7] 110 % of control

C/C=C/C[P+](CC)(c1ccccc1)c1ccccc1
inactive: dose: 0.78 mg/kg/injection, schedule: Q01DX009 (ip), vehicle: saline 103 % of control | dose: 1.56 mg/kg/injection, schedule: Q01DX009 (ip), vehicle: saline 97 % of control | dose: 3.13 mg/kg/injection, schedule: Q01DX009 (ip), vehicle: saline 112 % of control

CCC(C)C1NC(=O)C2CCCN2C(=O)C(CC(C)C)OC(=O)CCNC(=O)C(C)N(C)C(=O)C(C(C)C)N(C)C1=O (stereo not drawn) (cyclo([ξLac(3-iPr)]PI[NMeV][NMeA][βAla]); configuration not given here)
inactive: dose: 0.63 mg/kg/injection, schedule: Q01DX009 (ip), vehicle: saline 115 % of control | dose: 1.25 mg/kg/injection, schedule: Q01DX009 (ip), vehicle: saline 113 % of control | dose: 2.5 mg/kg/injection, schedule: Q01DX009 (ip), vehicle: saline 117 % of control | dose: 5.0 mg/kg/injection, schedule: Q01DX005 (ip), vehicle: saline with Tween-80 123 % of control | dose: 5.0 mg/kg/injection, schedule: Q01DX009 (ip), vehicle: saline 120 % of control | dose: 10.0 mg/kg/injection, schedule: Q01DX005 (ip), vehicle: saline with Tween-80 119 % of control

Cc1c2oc3c(C)ccc(C(=O)NC4C(=O)NC(C(C)C)C(=O)N5CCCCC5C(=O)N(C)CC(=O)N(C)C(C(C)C)C(=O)OC4C)c3nc-2c(C(=O)NC2C(=O)NC(C(C)C)C(=O)N3CCCCC3C(=O)N(C)CC(=O)N(C)C(C(C)C)C(=O)OC2C)c(N)c1=O (stereo not drawn) (I: TV[Pip][Sar][NMeV] / II: TV[Pip][Sar][NMeV]; ester I:1-I:C, II:1-II:C; linker I:N-II:N via Actinocin(9to1); configuration not given here)
active: dose: 1.56 mg/kg/injection, schedule: Q01DX009 (ip), vehicle: saline with Tween-80 180 % of control | dose: 3.12 mg/kg/injection, schedule: Q01DX009 (ip), vehicle: saline with Tween-80 190 % of control | [16] 165 % of control and 209 % of control | [10] 195 % of control
inactive: dose: 0.39 mg/kg/injection, schedule: Q01DX009 (ip), vehicle: saline with Tween-80 110 % of control | dose: 0.78 mg/kg/injection, schedule: Q01DX009 (ip), vehicle: saline with Tween-80 119 % of control

Cc1ccc(CN2CCN(Cc3ccc(C)o3)C(C)C2)o1 (stereo not drawn)
inactive: dose: 50.0 mg/kg/injection, schedule: Q01DX005 (ip), vehicle: saline 101 % of control | dose: 100.0 mg/kg/injection, schedule: Q01DX005 (ip), vehicle: saline 101 % of control | dose: 200.0 mg/kg/injection, schedule: Q01DX005 (ip), vehicle: saline 100 % of control

CCOC(=O)C(CCC(C)(C)SCc1ccccc1)(NC(C)=O)C(=O)OCC
inactive: [12] 91 % of control | [13] 91 % of control | [14] 86 % of control

O=[N+]([O-])c1cnc(-c2ccc(F)cc2)n1CCO
inactive: [12] 100 % of control | [13] 105 % of control | [14] 112 % of control

C[P+]1(C)CCc2c1ccc1ccccc21
inactive: [12] 102 % of control

Source: PubChem BioAssay AID330 (DTP/NCI, 2004)
